Results taken from ChEMBL document CHEMBL1201862, “PubChem BioAssay data set” (2004).
Active and inactive are the calls of the source. Cut-off read from the data, not from the text of the source, for most assays here: actives have a measured IC50 and inactives only a lower limit.

Key:
Format in all cases: functional
[1] = target: T1, Sentrin-specific protease 8 (Homo sapiens, UniProt Q96LD8); experiment: inhibition of human SENP8 cleavage activity – biochemical, luminescence, SAR follow-up (AID 504501)
T1 sequence (Q96LD8 whole entry): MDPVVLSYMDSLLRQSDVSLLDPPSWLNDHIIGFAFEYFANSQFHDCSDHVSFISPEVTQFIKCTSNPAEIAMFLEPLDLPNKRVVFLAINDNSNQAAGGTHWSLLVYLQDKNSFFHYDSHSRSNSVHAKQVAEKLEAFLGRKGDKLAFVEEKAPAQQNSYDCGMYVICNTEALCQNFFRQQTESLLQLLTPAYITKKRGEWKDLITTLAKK

[2] = target: T2, Sentrin-specific protease 6 (Homo sapiens, UniProt Q9GZR1); experiment: SAR Analysis of small molecule inhibitors of Sentrin-specific protease 6 (SENP6) using a Luminescent assay. [Related pubchem assays (depositor defined):AID2582, AID2599]
T2 sequence (Q9GZR1 whole entry): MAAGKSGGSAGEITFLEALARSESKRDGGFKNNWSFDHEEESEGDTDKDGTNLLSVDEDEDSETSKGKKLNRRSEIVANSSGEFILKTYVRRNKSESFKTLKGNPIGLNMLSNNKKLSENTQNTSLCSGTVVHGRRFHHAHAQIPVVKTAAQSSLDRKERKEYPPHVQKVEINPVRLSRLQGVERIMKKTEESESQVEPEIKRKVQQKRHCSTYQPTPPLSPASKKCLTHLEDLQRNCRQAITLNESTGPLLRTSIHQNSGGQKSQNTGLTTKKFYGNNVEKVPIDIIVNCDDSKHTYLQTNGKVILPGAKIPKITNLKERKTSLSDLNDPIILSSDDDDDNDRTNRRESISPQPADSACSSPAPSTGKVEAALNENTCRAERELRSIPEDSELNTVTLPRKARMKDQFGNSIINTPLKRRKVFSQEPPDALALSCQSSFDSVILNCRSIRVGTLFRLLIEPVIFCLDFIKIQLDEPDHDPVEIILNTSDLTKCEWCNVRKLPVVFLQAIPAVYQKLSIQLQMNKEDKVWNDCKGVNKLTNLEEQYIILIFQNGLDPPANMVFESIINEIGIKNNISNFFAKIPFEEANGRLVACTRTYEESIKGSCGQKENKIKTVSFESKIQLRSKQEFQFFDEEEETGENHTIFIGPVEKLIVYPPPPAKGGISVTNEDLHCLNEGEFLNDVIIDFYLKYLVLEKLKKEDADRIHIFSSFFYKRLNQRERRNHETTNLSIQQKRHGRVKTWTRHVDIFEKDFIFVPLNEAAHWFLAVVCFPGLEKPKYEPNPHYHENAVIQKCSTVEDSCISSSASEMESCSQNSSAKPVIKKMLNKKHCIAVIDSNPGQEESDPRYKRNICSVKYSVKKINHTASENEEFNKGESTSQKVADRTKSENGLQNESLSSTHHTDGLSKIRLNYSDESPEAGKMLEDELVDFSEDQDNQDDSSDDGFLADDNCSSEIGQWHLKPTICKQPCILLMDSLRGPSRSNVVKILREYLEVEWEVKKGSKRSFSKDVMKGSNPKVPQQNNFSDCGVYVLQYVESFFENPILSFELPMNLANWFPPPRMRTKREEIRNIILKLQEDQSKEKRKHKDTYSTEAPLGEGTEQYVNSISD

[3] = target: T3, Sentrin-specific protease 7 (Homo sapiens, UniProt Q9BQF6); experiment: inhibition of human SENP7 cleavage activity – biochemical, luminescence, SAR follow-up (AID 504497)
T3 sequence (Q9BQF6 whole entry): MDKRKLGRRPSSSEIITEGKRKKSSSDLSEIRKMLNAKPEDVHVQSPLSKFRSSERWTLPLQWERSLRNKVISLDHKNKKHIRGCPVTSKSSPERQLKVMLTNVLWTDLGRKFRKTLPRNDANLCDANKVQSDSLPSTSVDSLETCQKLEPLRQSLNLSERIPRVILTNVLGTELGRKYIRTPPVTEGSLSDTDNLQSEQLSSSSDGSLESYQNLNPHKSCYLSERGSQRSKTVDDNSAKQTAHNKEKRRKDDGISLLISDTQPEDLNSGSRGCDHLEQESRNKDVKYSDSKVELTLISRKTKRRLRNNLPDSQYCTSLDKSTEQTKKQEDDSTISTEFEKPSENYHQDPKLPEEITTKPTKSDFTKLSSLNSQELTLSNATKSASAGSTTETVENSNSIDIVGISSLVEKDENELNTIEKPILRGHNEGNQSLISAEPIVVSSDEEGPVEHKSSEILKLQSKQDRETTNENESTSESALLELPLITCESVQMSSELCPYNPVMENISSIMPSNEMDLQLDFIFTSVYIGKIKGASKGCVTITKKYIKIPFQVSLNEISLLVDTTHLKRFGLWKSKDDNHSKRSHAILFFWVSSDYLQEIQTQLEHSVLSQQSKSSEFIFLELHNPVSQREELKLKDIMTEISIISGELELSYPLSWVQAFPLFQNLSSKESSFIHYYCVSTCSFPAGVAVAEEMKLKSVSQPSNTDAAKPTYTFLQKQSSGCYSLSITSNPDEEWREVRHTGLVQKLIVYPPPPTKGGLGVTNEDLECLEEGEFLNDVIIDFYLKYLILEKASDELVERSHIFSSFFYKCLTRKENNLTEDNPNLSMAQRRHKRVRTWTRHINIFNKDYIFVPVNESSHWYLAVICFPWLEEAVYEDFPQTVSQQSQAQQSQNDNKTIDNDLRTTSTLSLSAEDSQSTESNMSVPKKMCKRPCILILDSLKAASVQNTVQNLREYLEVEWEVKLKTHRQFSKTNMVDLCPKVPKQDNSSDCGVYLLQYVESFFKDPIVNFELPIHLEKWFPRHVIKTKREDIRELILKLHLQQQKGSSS

Caspase-3 = target: T4, Caspase-3 (Homo sapiens, UniProt P42574); experiment: SAR Analysis of small molecule inhibitors of Sentrin-specific proteases (SENPs) using a Caspase-3 Selectivity assay. [Related pubchem assays (depositor defined):AID2540, AID2599, AID434973, AID489001]
T4 sequence (P42574 whole entry): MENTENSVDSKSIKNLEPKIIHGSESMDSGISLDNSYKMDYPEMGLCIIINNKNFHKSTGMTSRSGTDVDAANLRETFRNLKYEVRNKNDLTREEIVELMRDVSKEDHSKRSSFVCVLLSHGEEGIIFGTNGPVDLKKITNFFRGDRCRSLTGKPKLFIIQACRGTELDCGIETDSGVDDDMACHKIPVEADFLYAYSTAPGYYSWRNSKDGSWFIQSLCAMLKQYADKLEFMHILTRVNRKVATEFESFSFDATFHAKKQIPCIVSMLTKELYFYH

[4] = target: T5, Sphingosine 1-phosphate receptor 4 (Homo sapiens, UniProt O95977); experiment: Late-stage fluorescence-based dose-response cell-based counterscreen assay to identify agonists of the Sphingosine 1-Phosphate Receptor 3 (S1P3): Sphingosine 1-Phosphate Receptor 4 (S1P4) agonist assay.
T5 sequence (O95977 whole entry): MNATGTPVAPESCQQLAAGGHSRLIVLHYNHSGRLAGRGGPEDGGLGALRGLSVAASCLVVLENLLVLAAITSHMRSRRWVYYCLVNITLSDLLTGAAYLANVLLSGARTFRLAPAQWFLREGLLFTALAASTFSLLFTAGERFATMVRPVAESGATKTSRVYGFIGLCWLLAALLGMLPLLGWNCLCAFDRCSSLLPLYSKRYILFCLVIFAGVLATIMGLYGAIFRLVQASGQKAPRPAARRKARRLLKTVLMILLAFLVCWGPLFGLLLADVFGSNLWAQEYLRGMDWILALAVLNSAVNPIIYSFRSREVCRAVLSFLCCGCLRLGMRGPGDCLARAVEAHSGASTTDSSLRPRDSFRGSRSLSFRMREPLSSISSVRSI

[5] = target: Sphingosine 1-phosphate receptor 2 (Homo sapiens, UniProt O95136); experiment: Late-stage fluorescence-based dose-response cell-based counterscreen assay to identify agonists of the Sphingosine 1-Phosphate Receptor 3 (S1P3): Sphingosine 1-Phosphate Receptor 2 (S1P2) agonist assay.
Sequence of Sphingosine 1-phosphate receptor 2 (O95136 whole entry): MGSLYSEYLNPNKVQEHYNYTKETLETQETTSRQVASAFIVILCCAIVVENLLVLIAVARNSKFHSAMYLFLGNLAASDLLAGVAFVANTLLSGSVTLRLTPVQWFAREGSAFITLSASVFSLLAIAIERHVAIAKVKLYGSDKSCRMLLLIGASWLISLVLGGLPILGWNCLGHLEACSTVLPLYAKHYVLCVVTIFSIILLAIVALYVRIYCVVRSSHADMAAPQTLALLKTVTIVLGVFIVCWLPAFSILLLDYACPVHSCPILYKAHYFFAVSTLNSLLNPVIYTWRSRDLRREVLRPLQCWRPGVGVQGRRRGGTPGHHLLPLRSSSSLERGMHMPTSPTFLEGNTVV

CC1CC(C)CN(S(=O)(=O)c2ccc(C(=O)Nc3nc4ccc(C(C)C)cc4s3)cc2)C1 (stereo unspecified)
inactive: IC50 [1] > 99 µM | IC50 [2] > 99 µM | IC50 [3] > 99 µM | IC50 (Caspase-3) > 99 µM

Cc1cc(C(=O)N(C2CCCCC2)C2CCCCC2)no1
inactive: EC50 [4] > 50 µM | EC50 [5] > 50 µM
